This assay deals with Sodium channel protein type 9 subunit alpha (Homo sapiens, UniProt Q15858). In words: Radioligand Binding Assay. The following applies: pH 7.4; 25 °C.

The results in this text go back to BindingDB's records for patent US9694002 (Genentech Inc, 2017).

What is called IC50 is the point on the concentration scale where inhibition reaches its midpoint. A higher IC50 goes with weaker potency.

Sequence of Sodium channel protein type 9 subunit alpha (Q15858 whole entry): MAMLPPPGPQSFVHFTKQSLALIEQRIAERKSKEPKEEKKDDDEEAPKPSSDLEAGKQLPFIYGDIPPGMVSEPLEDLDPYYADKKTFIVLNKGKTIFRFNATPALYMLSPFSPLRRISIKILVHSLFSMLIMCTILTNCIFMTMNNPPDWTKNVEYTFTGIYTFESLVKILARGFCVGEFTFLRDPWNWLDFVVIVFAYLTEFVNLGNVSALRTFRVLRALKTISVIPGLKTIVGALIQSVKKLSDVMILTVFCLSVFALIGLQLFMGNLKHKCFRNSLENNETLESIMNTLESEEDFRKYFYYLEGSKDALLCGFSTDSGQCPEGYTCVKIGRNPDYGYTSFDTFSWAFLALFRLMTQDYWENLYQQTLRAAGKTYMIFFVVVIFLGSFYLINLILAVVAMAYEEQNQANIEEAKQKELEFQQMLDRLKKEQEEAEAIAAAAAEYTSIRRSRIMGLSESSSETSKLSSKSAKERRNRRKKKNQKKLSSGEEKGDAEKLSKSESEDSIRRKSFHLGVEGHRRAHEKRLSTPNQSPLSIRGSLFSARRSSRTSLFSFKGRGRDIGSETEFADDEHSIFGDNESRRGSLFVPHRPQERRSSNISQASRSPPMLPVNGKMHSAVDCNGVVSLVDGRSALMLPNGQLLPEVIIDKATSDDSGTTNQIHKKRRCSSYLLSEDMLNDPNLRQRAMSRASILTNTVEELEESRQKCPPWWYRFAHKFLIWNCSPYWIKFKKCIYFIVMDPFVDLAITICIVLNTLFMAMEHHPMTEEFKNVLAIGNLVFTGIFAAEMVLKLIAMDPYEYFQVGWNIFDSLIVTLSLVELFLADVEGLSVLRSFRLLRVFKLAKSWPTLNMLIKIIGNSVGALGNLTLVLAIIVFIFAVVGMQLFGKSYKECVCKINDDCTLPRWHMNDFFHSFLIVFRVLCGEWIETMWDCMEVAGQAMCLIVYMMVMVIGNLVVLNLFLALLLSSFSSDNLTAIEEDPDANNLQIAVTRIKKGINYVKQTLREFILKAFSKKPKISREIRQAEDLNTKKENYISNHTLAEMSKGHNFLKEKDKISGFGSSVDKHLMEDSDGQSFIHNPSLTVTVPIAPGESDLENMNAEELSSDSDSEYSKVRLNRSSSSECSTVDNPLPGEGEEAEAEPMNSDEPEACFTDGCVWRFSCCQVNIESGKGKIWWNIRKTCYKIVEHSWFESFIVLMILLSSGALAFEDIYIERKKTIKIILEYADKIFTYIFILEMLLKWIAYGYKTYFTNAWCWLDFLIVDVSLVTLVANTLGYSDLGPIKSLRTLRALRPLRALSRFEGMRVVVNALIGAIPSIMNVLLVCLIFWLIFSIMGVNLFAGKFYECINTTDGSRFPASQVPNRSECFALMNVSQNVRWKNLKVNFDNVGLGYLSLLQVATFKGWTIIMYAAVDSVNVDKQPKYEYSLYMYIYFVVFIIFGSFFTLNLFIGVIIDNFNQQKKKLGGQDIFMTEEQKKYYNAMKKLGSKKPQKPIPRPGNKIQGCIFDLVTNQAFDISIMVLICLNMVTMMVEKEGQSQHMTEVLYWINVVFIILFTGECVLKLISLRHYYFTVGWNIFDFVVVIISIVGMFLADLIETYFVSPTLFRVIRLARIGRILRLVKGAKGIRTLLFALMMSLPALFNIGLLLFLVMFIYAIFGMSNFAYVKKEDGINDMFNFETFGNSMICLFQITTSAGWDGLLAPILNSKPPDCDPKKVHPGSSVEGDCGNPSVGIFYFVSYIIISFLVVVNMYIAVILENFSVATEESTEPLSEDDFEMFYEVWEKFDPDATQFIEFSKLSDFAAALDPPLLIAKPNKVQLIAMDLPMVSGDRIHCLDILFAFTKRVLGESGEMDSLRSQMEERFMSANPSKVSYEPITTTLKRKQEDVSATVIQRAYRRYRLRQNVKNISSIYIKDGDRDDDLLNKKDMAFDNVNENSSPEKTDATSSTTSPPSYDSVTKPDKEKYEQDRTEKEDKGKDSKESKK
Experimental: Binding of this radioligand was preformed in 5 mL borosilicate glass test tubes at room temperature. […] Non-specific binding was determined in the presence of 1 uM unlabelled compound. […] [3H]compound bound to filters was quantified by liquid scintillation counting.

In turn, `O=C(NS(=O)(=O)C1CC1)c1cc(C2CC2)c(CN2CCC(Oc3ccc(Cl)cc3)CC2)cc1F` [US9694002, 504] yielded a 50% inhibitory concentration (IC50) of 16 nM.
In turn, `CS(=O)(=O)NC(=O)c1cc(C2CC2)c(CN2CCC(Oc3ccc(Cl)cc3)CC2)cc1F` [US9694002, 503] gave an IC50 of 30 nM.
